Source: publication PMC5011342, “A high throughput drug screening assay to identify compounds that promote oligodendrocyte differentiation using acutely dissociated and purified oligodendrocyte precursor cells” (BMC Research Notes, 2016)
Read-outs that look alike come from different tables or passages of the source.

Key:
[1] = tested on: acutely dissociated and purified rat OPCs; experiment: Acute OL differentiation assay (MBP expression/cell, immunofluorescent image quantification); assay type: cell-based; details: for activation at 2 µM / activation at 10 µM / activation at 0.4 µM: Rattus norvegicus
Outline: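 This acute differentiation assay used purified rat OPCs from postnatal day 6–7 pups, seeded into PDL/laminin-coated 96-well plates in differentiation medium lacking PDGF and FGF. Compounds were applied in quadruplicate after a 1–2 h preincubation at 37 °C, 10 % CO2, with 0.1 % DMSO negative and 40 ng/ml T3 positive controls in eight wells. After fixation on DIV4, anti-MBP immunofluorescence images yielded MBP expression/cell.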

[2] = tested on: expanded OPCs; experiment: cells; details: for viability at 0.1 µM / viability at 1 µM / viability at 10 µM: Rattus norvegicus, 72 h; for 0.1 µM (% DMSO) / 1 µM (% DMSO) / 10 µM (% DMSO): alamarBlue viability of expanded OPCs; for 0.1 µM (% DMSO): compound at 0.1 µM; for 1 µM (% DMSO): compound at 1 µM; for 10 µM (% DMSO): compound at 10 µM
Outline: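 Toxicity screen: compounds added at 0.1, 1 and 10 µM to PDGF-AA-expanded OPCs in 96-well plates, 3-day incubation at 37 °C, 10% CO2, then alamarBlue 1:10 for 4 h with fluorescence readout. Results set screening doses of 10/2, 2/0.4 or 0.4/0.08 µM.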

[3] = 2 uM test compound, relative to quetiapine, sheet "All OLga data", read-out: OL differentiation, 2 uM (% Quet)
[4] = 10 uM test compound, relative to quetiapine, sheet "All OLga data", read-out: OL differentiation, 10 uM (% Quet)
[5] = read-out: 0.1 µM (% DMSO), alamarBlue viability of expanded OPCs, compound at 0.1 µM, sheet All Tox data
[6] = read-out: 1 µM (% DMSO), alamarBlue viability of expanded OPCs, compound at 1 µM, sheet All Tox data
[7] = read-out: 10 µM (% DMSO), alamarBlue viability of expanded OPCs, compound at 10 µM, sheet All Tox data
[8] = test compound at 2 uM, NCC library screen, sheet "All OLga data", relative to quetiapine, read-out: 2 uM (% Quet)
[9] = test compound at 10 uM, NCC library screen, sheet "All OLga data", relative to quetiapine, read-out: 10 uM (% Quet)
[10] = test compound at 0.4 uM, NCC library screen, sheet "All OLga data", relative to quetiapine, read-out: 0.4 uM (% Quet)
[11] = read-out: 0.1 µM (% DMSO), alamarBlue viability, NCC library compound at 0.1 µM, sheet "All Tox data"
[12] = read-out: 1 µM (% DMSO), alamarBlue viability, NCC library compound at 1 µM, sheet "All Tox data"
[13] = read-out: 10 µM (% DMSO), alamarBlue viability, NCC library compound at 10 µM, sheet "All Tox data"
[14] = test compound at 2 uM, MBP expression relative to quetiapine, NCC library screen, sheet "All OLga data", read-out: 2 uM (% Quet)
[15] = test compound at 10 uM, MBP expression relative to quetiapine, NCC library screen, sheet "All OLga data", read-out: 10 uM (% Quet)
[16] = 0.4 uM test compound, relative to quetiapine, sheet "All OLga data", read-out: OL differentiation, 0.4 uM (% Quet)

| Compound | activation at 2 µM [1, 3] | activation at 10 µM [1, 4] | viability at 0.1 µM [2, 5] | viability at 1 µM [2, 6] | viability at 10 µM [2, 7] | activation at 2 µM [1, 8] | 0.1 µM (% DMSO) ([2]; relative to DMSO control) | 1 µM (% DMSO) ([2]; relative to DMSO control) | 10 µM (% DMSO) ([2]; relative to DMSO control) | other results |
| --- | --- | --- | --- | --- | --- | --- | --- | --- | --- | --- |
| Cc1ncc2n1-c1ccc(Cl)cc1C(c1ccccc1F)=NC2 [Midazolam] | -15.2% | -81.7% | 91% | 99.9% | 128% | – | – | – | – | – |
| CCC(=O)O[C@@H]1CC(=O)O[C@H](C)C/C=C/C=C/[C@H](O)[C@H](C)C[C@H](CC=O)[C@H](O[C@@H]2O[C@H](C)[C@@H](O[C@H]3C[C@@](C)(O)[C@@H](OC(=O)CC)[C@H](C)O3)[C@H](N(C)C)[C@H]2O)[C@H]1OC [Midecamycin] | -0.9% | -11.3% | 92.7% | 95.7% | 91.2% | – | – | – | – | – |
| COc1ccc(OC)c(C(O)CNC(=O)CN)c1 (centres unmarked) [Midodrine] | – | – | – | – | – | -2.5% | 90.8 % DMSO | 88.9 % DMSO | 89.1 % DMSO | activation at 10 µM [1, 9]: 6.3% |
| CC#C[C@]1(O)CC[C@H]2[C@@H]3CCC4=CC(=O)CCC4=C3[C@@H](c3ccc(N(C)C)cc3)C[C@@]21C [Mifepristone] | – | – | – | – | – | -139% | – | – | – | activation at 0.4 µM [1, 10]: -2.7%; viability at 0.1 µM [2, 11]: 84.5%; viability at 1 µM [2, 12]: 71.3%; viability at 10 µM [2, 13]: 26.4% |
| OCCN1C[C@H](O)[C@@H](O)[C@H](O)[C@H]1CO [Miglitol] | 13.5% | -3.3% | 90.6% | 92.6% | 90.3% | – | – | – | – | – |
| CCN(CC)C(=O)C1(c2ccccc2)CC1CN (centres unmarked) [Milnacipran] | -17.2% | -8.5% | – | – | – | – | – | – | – | viability at 0.1 µM [2, 11]: 88.4%; viability at 1 µM [2, 12]: 85.1%; viability at 10 µM [2, 13]: 71.2% |
| Cc1[nH]c(=O)c(C#N)cc1-c1ccncc1 [Milrinone] | 5.1% | -2.1% | – | – | – | – | – | – | – | viability at 0.1 µM [2, 11]: 87.2%; viability at 1 µM [2, 12]: 85.8%; viability at 10 µM [2, 13]: 79.6% |
| CN(C)c1ccc(O)c2c1C[C@H]1C[C@H]3[C@H](N(C)C)C(O)=C(C(N)=O)C(=O)[C@@]3(O)C(O)=C1C2=O [Minocycline] | – | – | – | – | – | 10.9% | 90.1 % DMSO | 90.9 % DMSO | 83.5 % DMSO | activation at 10 µM [1, 9]: -13.3% |
| Nc1cc(N2CCCCC2)nc(N)[n+]1[O-] [Minoxidil] | – | – | – | – | – | – | 93.0 % DMSO | 102.8 % DMSO | 89.5 % DMSO | activation at 2 µM [1, 14]: 13.4%; activation at 10 µM [1, 15]: -4.2% |
| CN1CCN2c3ncccc3Cc3ccccc3C2C1 (centres unmarked) [Mirtazapine] | – | – | – | – | – | -35.7% | – | – | – | activation at 0.4 µM [1, 10]: -26.7%; viability at 0.1 µM [2, 11]: 94.4%; viability at 1 µM [2, 12]: 73%; viability at 10 µM [2, 13]: 60.1% |
| O=C(NCCN1CCOCC1)c1ccc(Cl)cc1 [Moclobemide] | 9.8% | -9.7% | 99.2% | 110% | 113% | – | – | – | – | – |
| NC(=O)C[S+]([O-])C(c1ccccc1)c1ccccc1 (centres unmarked) [Modafinil] | 15.5% | -30.2% | 105% | 94.6% | 99.6% | – | – | – | – | – |
| CCc1c(C)[nH]c2c1C(=O)C(CN1CCOCC1)CC2 (centres unmarked) [Molindone] | – | – | – | – | – | – | 90.6 % DMSO | 95.4 % DMSO | 105.0 % DMSO | activation at 2 µM [1, 14]: 1.6%; activation at 10 µM [1, 15]: -34.4% |
| CC(C)(O)c1ccccc1CC[C@@H](SCC1(CC(=O)O)CC1)c1cccc(/C=C/c2ccc3ccc(Cl)cc3n2)c1 [Montelukast] | -31.7% | – | – | – | – | – | – | – | – | activation at 0.4 µM [1, 16]: 12.9%; viability at 0.1 µM [2, 11]: 95.5%; viability at 1 µM [2, 12]: 83%; viability at 10 µM [2, 13]: 11% |
| CCOc1cc(N)c(Cl)cc1C(=O)NCC1CN(Cc2ccc(F)cc2)CCO1 (centres unmarked) [Mosapride] | -17% | 4.4% | 102% | 104% | 130% | – | – | – | – | – |
| COc1nc(C)nc(Cl)c1N=C1NCCN1 [Moxonidine] | -1.2% | -26.2% | 85.4% | 88.5% | 98.4% | – | – | – | – | – |
| C/C(=C\C(=O)OCCCCCCCCC(=O)O)C[C@@H]1OC[C@H](C[C@@H]2O[C@H]2[C@@H](C)[C@H](C)O)[C@@H](O)[C@H]1O [Mupirocin] | – | – | – | – | – | – | 103.2 % DMSO | 108.1 % DMSO | 104.3 % DMSO | activation at 2 µM [1, 14]: -2.9%; activation at 10 µM [1, 15]: 0.04% |
| CN1CC[C@@H](c2ccc(F)cc2)[C@H](COc2ccc3c(c2)OCO3)C1 [N-Methylparoxetine] | – | – | – | – | – | – | – | – | – | OL differentiation, 0.4 uM (% Quet) ([1]; 0.4 uM test compound, relative to quetiapine, sheet "All OLga data"): -15.7 % Quet; OL differentiation, 2 uM (% Quet) ([1]; 2 uM test compound, relative to quetiapine, sheet "All OLga data"): -45.1 % Quet; 0.1 µM (% DMSO) ([2]; sheet All Tox data): 86.7 % DMSO; 1 µM (% DMSO) ([2]; sheet All Tox data): 60.7 % DMSO; 10 µM (% DMSO) ([2]; sheet All Tox data): 18.7 % DMSO |
| COc1ccc2cc(CCC(C)=O)ccc2c1 [Nabumetone] | – | – | – | – | – | 5.8% | – | – | – | activation at 10 µM [1, 9]: 14.1%; viability at 0.1 µM [2, 11]: 92%; viability at 1 µM [2, 12]: 90.9%; viability at 10 µM [2, 13]: 94.8% |
| CC(C)(C)NCC(O)COc1cccc2c1CC(O)C(O)C2 (centres unmarked) [Nadolol] | – | – | – | – | – | -14.4% | 102.3 % DMSO | 95.3 % DMSO | 94.0 % DMSO | activation at 10 µM [1, 9]: -35% |
| CCCCN1CCCC1CNC(=O)c1cc(C#N)c2ccccc2c1OC (centres unmarked) [Nafadotride] | – | – | – | – | – | 26.6% | – | – | – | activation at 0.4 µM [1, 10]: 7.6%; viability at 0.1 µM [2, 11]: 118%; viability at 1 µM [2, 12]: 131%; viability at 10 µM [2, 13]: 49.6% |
| CCOc1ccc2ccccc2c1C(=O)N[C@@H]1C(=O)N2[C@@H]1SC(C)(C)[C@@H]2C(=O)O [Nafcillin] | – | – | – | – | – | -20.5% | 104.4 % DMSO | 94.8 % DMSO | 90.0 % DMSO | activation at 10 µM [1, 9]: 0.11% |
| COc1ccccc1N1CCN(CC(O)COc2cccc3ccccc23)CC1 (centres unmarked) [Naftopidil] | -49.3% | – | 96.2% | 87.5% | 26.4% | – | – | – | – | activation at 0.4 µM [1, 16]: -7.9% |
| Oc1ccc2c3c1O[C@H]1[C@@H](O)CC[C@@]4(O)[C@@H](C2)N(CC2CCC2)CC[C@]314 [Nalbufina] | – | – | – | – | – | – | – | – | – | activation at 2 µM ([1]; read-out: OL differentiation, 2 uM (% Quet)): -0.9%; activation at 10 µM ([1]; read-out: OL differentiation, 10 uM (% Quet)): 19.7%; viability at 0.1 µM ([2]; read-out: 0.1 µM (% DMSO)): 99%; viability at 1 µM ([2]; read-out: 1 µM (% DMSO)): 98.8%; viability at 10 µM ([2]; read-out: 10 µM (% DMSO)): 99.1% |
| CCn1cc(C(=O)O)c(=O)c2ccc(C)nc21 [Nalidixic Acid] | – | – | – | – | – | – | 93.0 % DMSO | 93.1 % DMSO | 92.5 % DMSO | activation at 2 µM [1, 14]: -14.9%; activation at 10 µM [1, 15]: -17.1% |
| C=CCN1CC[C@]23c4c5ccc(O)c4O[C@H]2C(=O)CC[C@@]3(O)[C@H]1C5 [Naloxone] | – | – | – | – | – | -2.8% | – | – | – | activation at 10 µM [1, 9]: -10.8%; viability at 0.1 µM [2, 11]: 94.2%; viability at 1 µM [2, 12]: 90.1%; viability at 10 µM [2, 13]: 85.6% |
| O=C1CC[C@@]2(O)[C@H]3Cc4ccc(O)c5c4[C@@]2(CCN3CC2CC2)[C@H]1O5 [Naltrexone] | – | – | – | – | – | – | 99.5 % DMSO | 101.6 % DMSO | 97.3 % DMSO | activation at 2 µM [1, 14]: 12.8%; activation at 10 µM [1, 15]: -5.6% |
| Oc1ccc2c3c1O[C@H]1c4[nH]c5ccccc5c4C[C@@]4(O)[C@@H](C2)N(CC2CC2)CC[C@]314 [Naltrindole] | -35.8% | – | 80.6% | 66.7% | 17.9% | – | – | – | – | activation at 0.4 µM [1, 16]: -9.9% |
